Read-outs that look alike come from different tables or passages of the source.
Experiments:
μ opioid receptor = molecular target: T1, μ opioid receptor (Homo sapiens, UniProt P35372); experiment: Competition binding assay on membranes of CHO cells expressing μ opioid receptor, [3H]-labeled ligand
T1 construct: expressed in transfected cells; host or cells: CHO cells (membranes)
In short: (§1)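 CHO membranes (20–30 μg protein) incubated with [3H]-labeled ligand at 1–2 nM and test compounds, 30 min at 30° C; nonspecific binding with 1 μM corresponding ligand. Filtered on GF/C, washed with 50 mM Tris-HCl pH 7.4, scintillation-counted. IC50 converted to Ki by Ki=IC50/(1+[L]/Kd).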

κ opioid receptor = molecular target: T2, κ opioid receptor (Homo sapiens, UniProt P41145); experiment: Competition binding assay on membranes of CHO cells expressing κ opioid receptor, [3H]-labeled ligand
T2 construct: expressed in transfected cells; host or cells: CHO cells (membranes)
In short: as §1

[1] = Table 3-1, 1 μM concentration of compounds
[2] = Table 4-1, 1 μM concentration of compound

In the case of `COc1cccc(C2(O)CCCCC2CN(C)C)c1` (stereo not shown) [Tramadol, reference compound], the inhibition at 1 µM (μ opioid receptor; 0.5 h, Table 5-1, 1 μM concentration of compound, read-out: μOR Combination rate (%)) is reported as 6 ± 0.4%, the inhibition at 10 µM (μ opioid receptor; Table 1-1, 10 μM concentration of compound, mean ± SD of three measurements, read-out: μOR Binding rate (%)) is reported as 6 ± 0.4% and the inhibition at 1 µM (μ opioid receptor; Table 2-1, 1 μM concentration of compound, read-out: μOR Binding rate (%)) is reported as 6 ± 0.4%. The “μOR Binding rate (%)” value (μ opioid receptor; [1]) was 6.0%, the “μOR Binding rate (%)” value (μ opioid receptor; [2]) was 6.0 ± 0.4% and the inhibition at 10 µM (κ opioid receptor; 0.5 h, Table 1-1, 10 μM concentration of compound, read-out: κOR Binding rate (%)) was 0%. For the same compound, the inhibition at 1 µM (κ opioid receptor; 0.5 h, Table 2-1, 1 μM concentration of compound, read-out: κOR Binding rate (%)) was 0%, the inhibition at 1 µM (κ opioid receptor; 0.5 h, Table 5-1, 1 μM concentration of compound, read-out: κOR Combination rate (%)) was 0% and the “κOR Binding rate (%)” value (κ opioid receptor; [1]) was 0%. The “κOR Binding rate (%)” value (κ opioid receptor; [2]) was 0%.

Source: patent US12624004B2 (Fudan University, priority 2019, dated 2026)
